Among the test systems are UACC-62 melanoma; MCF7 breast; HOP-62 NSCLC; MDA-MB-231 breast; M14 melanoma; NCI/ADR-RES ovarian; HS 578T breast; SK-OV-3 ovarian; HL-60(TB) leukemia; MDA-MB-435; T-47D breast; ACHN renal; OVCAR-8 ovarian; SK-MEL-5 melanoma; HCC-2998 colon; K-562 leukemia; SF-295 CNS; LOX IMVI melanoma; EKVX NSCLC; HCT-15 colon.
Common to all, as to assay: NCI tumour cell line growth inhibition, 48 h

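How tested: cells in 96-well plates exposed to compound for 48 hours at five concentrations. Definition used: TGI = concentration required for complete inhibition of growth.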

On to `CC(=O)N(C)c1ccc(Nc2cc(C)[nH]c3ccc4ncnc4c23)cc1`, for which the TGI was found to be 31.8 µM in the experiment with UACC-62 melanoma; 26 µM in the experiment on MCF7 breast; 23.5 µM with HOP-62 NSCLC; 30.4 µM in the experiment on MDA-MB-231 breast; 21.5 µM with M14 melanoma; 453 µM in the experiment with NCI/ADR-RES ovarian. For the same compound, the TGI worked out at 35.5 µM in the experiment with HS 578T breast; 35.8 µM in the experiment on SK-OV-3 ovarian; 18.9 µM in the experiment with HL-60(TB) leukemia; 23.3 µM in the experiment on MDA-MB-435; 39.6 µM in the experiment on T-47D breast; 16.3 µM in the experiment on ACHN renal. Further, the TGI in the experiment with OVCAR-8 ovarian is 21.5 µM; in the experiment on SK-MEL-5 melanoma it was 17.7 µM; with HCC-2998 colon it was 22.3 µM; in the experiment with K-562 leukemia it was 74 µM; with SF-295 CNS, 39.1 µM; with LOX IMVI melanoma, 15.9 µM. Moreover, the TGI turned out to be 50.5 µM with EKVX NSCLC and 93.3 µM with HCT-15 colon.
On to `O=C1C2CC=CCC2C(=O)N1n1c(Cc2ccc(Cl)cc2)n[nH]c1=O` (stereo not given), for which the TGI with UACC-62 melanoma, in the experiment with MCF7 breast, in the experiment on HOP-62 NSCLC, with MDA-MB-231 breast, in the experiment with M14 melanoma and with NCI/ADR-RES ovarian was over 100 µM each time. Also, the TGI in the experiment on HS 578T breast, in the experiment on SK-OV-3 ovarian, in the experiment on HL-60(TB) leukemia, in the experiment on MDA-MB-435, in the experiment on T-47D breast and in the experiment on ACHN renal was over 100 µM throughout. The TGI in the experiment on OVCAR-8 ovarian, in the experiment with SK-MEL-5 melanoma, with HCC-2998 colon, in the experiment on K-562 leukemia, with SF-295 CNS and in the experiment on LOX IMVI melanoma was over 100 µM in each case. The TGI in the experiment with EKVX NSCLC and in the experiment with HCT-15 colon was over 100 µM throughout.
Consider `Cc1cc(C)n(C(=C(C(Cl)=C(Cl)Cl)[N+](=O)[O-])n2nc(C)cc2C)n1`, for which the TGI with UACC-62 melanoma came to 14.9 µM; in the experiment with MCF7 breast, 8.2 µM; in the experiment on HOP-62 NSCLC, 19.5 µM; in the experiment with MDA-MB-231 breast, 27.8 µM; in the experiment with M14 melanoma, 15.5 µM; with NCI/ADR-RES ovarian, 20.5 µM. For the same compound, the TGI is 20.6 µM with HS 578T breast; 8.69 µM with SK-OV-3 ovarian; 3.92 µM in the experiment with HL-60(TB) leukemia; 5.56 µM in the experiment on MDA-MB-435; 23.1 µM with T-47D breast; 8.8 µM in the experiment with ACHN renal. Moreover, the TGI amounted to 9.22 µM with OVCAR-8 ovarian; 3.88 µM in the experiment on SK-MEL-5 melanoma; 12.5 µM in the experiment on HCC-2998 colon; 5 µM in the experiment on K-562 leukemia; 14.8 µM with SF-295 CNS; 4.69 µM with LOX IMVI melanoma. Also, the TGI with EKVX NSCLC was determined as 6.27 µM; in the experiment with HCT-15 colon it was 11.4 µM.
In the case of `CCOC(=O)c1c(NC(=O)c2cccs2)sc2c1CCCC2`, the TGI is over 100 µM in the experiment with UACC-62 melanoma; over 100 µM in the experiment on MCF7 breast; 55.3 µM with HOP-62 NSCLC; 69.8 µM with MDA-MB-231 breast; over 100 µM with M14 melanoma; over 100 µM in the experiment on NCI/ADR-RES ovarian. For the same compound, the TGI with HS 578T breast was 76.9 µM; with SK-OV-3 ovarian, 79.5 µM; with HL-60(TB) leukemia it was over 100 µM; with MDA-MB-435, over 100 µM; with T-47D breast, over 100 µM; with ACHN renal it was over 100 µM. The TGI in the experiment with OVCAR-8 ovarian, with SK-MEL-5 melanoma, in the experiment with HCC-2998 colon, in the experiment with K-562 leukemia, with SF-295 CNS and in the experiment on LOX IMVI melanoma was over 100 µM each time. Also, the TGI in the experiment on EKVX NSCLC and in the experiment with HCT-15 colon was over 100 µM each time.
In the case of `CC1=CC(C)C/C=C/C2C3OC3(C)C(C)C3C(Cc4c[nH]c5ccccc45)NC(=O)C23C(=O)C=CC(=O)C1O` (stereo not given), the TGI in the experiment with UACC-62 melanoma came out at 29.1 µM; in the experiment with MCF7 breast it was 27.1 µM; in the experiment on HOP-62 NSCLC, 26.7 µM; in the experiment with MDA-MB-231 breast it was 16.9 µM; in the experiment on M14 melanoma it was 16.8 µM; in the experiment with NCI/ADR-RES ovarian, 68.2 µM. The TGI is 56.5 µM with HS 578T breast; 25.2 µM in the experiment on SK-OV-3 ovarian; 5.55 µM in the experiment with HL-60(TB) leukemia; 46.6 µM in the experiment with MDA-MB-435; 3.76 µM in the experiment with T-47D breast; 2.73 µM with ACHN renal. In addition, the TGI is 54.3 µM with OVCAR-8 ovarian; 24.4 µM with SK-MEL-5 melanoma; 21.7 µM with HCC-2998 colon; over 100 µM in the experiment on K-562 leukemia; 27.8 µM with SF-295 CNS; 17.9 µM with LOX IMVI melanoma. Besides, the values for the TGI with EKVX NSCLC and with HCT-15 colon were 14.7 µM and 8.67 µM, respectively.
With `N=C1/C(=C/c2ccc(F)cc2)C(=O)N=C2SC=NN12`, the TGI with UACC-62 melanoma, in the experiment with MCF7 breast, in the experiment on HOP-62 NSCLC, with MDA-MB-231 breast, in the experiment with M14 melanoma and in the experiment with NCI/ADR-RES ovarian was over 100 µM each time. Besides, the TGI with HS 578T breast, in the experiment with SK-OV-3 ovarian, in the experiment on HL-60(TB) leukemia, in the experiment with MDA-MB-435, with T-47D breast and in the experiment on ACHN renal was over 100 µM in each case. Further, the TGI in the experiment on OVCAR-8 ovarian, in the experiment on SK-MEL-5 melanoma, with HCC-2998 colon, in the experiment on K-562 leukemia, in the experiment with SF-295 CNS and in the experiment with LOX IMVI melanoma was over 100 µM throughout. In addition, the TGI in the experiment with EKVX NSCLC and with HCT-15 colon was over 100 µM throughout.
Turning to `Nc1ccc(-c2nc3cc(F)ccc3s2)cc1Cl`, the TGI in the experiment on UACC-62 melanoma was over 100 µM; in the experiment with MCF7 breast, 1.35 µM; with HOP-62 NSCLC, 46.8 µM; in the experiment with MDA-MB-231 breast, over 100 µM; in the experiment with M14 melanoma, over 100 µM; with NCI/ADR-RES ovarian it was over 100 µM. Moreover, the TGI was over 90.4 µM with HS 578T breast; 52.6 µM in the experiment with SK-OV-3 ovarian; over 100 µM with HL-60(TB) leukemia; over 100 µM in the experiment on MDA-MB-435; over 70.1 µM in the experiment with T-47D breast; over 85 µM in the experiment with ACHN renal. Besides, the TGI in the experiment with OVCAR-8 ovarian was over 100 µM; in the experiment on SK-MEL-5 melanoma, over 100 µM; in the experiment on HCC-2998 colon, 0.0255 µM; in the experiment with K-562 leukemia, over 100 µM; with SF-295 CNS, over 72.3 µM; with LOX IMVI melanoma, over 100 µM. In addition, the figures for the TGI in the experiment on EKVX NSCLC and with HCT-15 colon were over 48.2 µM and over 100 µM, respectively.

The values above are taken from PubChem BioAssay (NCI).
